In ChEMBL document CHEMBL4396868, “Discovery of Potent, Selective, and Brain-Penetrant 1 H-Pyrazol-5-yl-1 H-pyrrolo[2,3- b]pyridines as Anaplastic Lymphoma Kinase (ALK) Inhibitors” (J Med Chem, 2019):
pIC50: −log10 of the molar value.

Tests used:
[1] = molecular target: Dual specificity mitogen-activated protein kinase kinase 1 (Homo sapiens) (UniProt Q02750); assay: Inhibition of N-terminal GST-fused MEK1 (unknown origin) expressed in FreeStyle 293 cells at 100 nM using GST-ERK1(K71A) as substrate preincubated for 5 mins followed by [gamma-33P]ATP addition and measured after 20 mins by topcount scintillation counting method relative to control
[2] = molecular target: Serine/threonine-protein kinase PLK1 (Homo sapiens) (UniProt P53350); assay: Inhibition of N-terminal FLAG-tagged PLK1 (unknown origin) expressed in baculovirus expression system at 100 nM using alpha-casein as substrate preincubated for 5 mins followed by [gamma-33P]ATP addition and measured after 40 mins by topcount scintillation counting method relative to control
[3] = molecular target: ALK tyrosine kinase receptor (Homo sapiens, UniProt Q9UM73)
Description: Inhibition of human ALK kinase domain (1058 to 1620 residues) expressed in baculovirus expression system using biotin-poly-GT as substrate pre-incubated for 10 mins followed by ATP addition and measured after 60 mins by HTRF method

[4] = molecular target: cAMP-dependent protein kinase catalytic subunit alpha (Homo sapiens) (UniProt P17612); assay: Inhibition of PKA (unknown origin) expressed in Escherichia coli at 100 nM using PKA substrate peptide preincubated for 5 mins followed by [gamma-33P]ATP addition and measured after 10 mins by topcount scintillation counting method relative to control
[5] = molecular target: Casein kinase I isoform delta (Homo sapiens) (UniProt P48730); assay: Inhibition of CK1delta (unknown origin) at 100 nM by [gamma-33P]ATP-based radiometric or Alphascreen assay relative to control
[6] = Fraction unbound in ICR mouse brain at 1 umol/L measured for 16 to 20 hrs by equilibrium dialysis based LC-MS/MS analysis; format: ADME, tissue-based; conditions: 1 µM
[7] = molecular target: Focal adhesion kinase 1 (Homo sapiens, UniProt Q05397); assay: Inhibition of full-length N-terminal FLAG-tagged FAK (unknown origin) expressed in baculovirus expression system at 100 nM preincubated for 5 mins followed by ATP addition and measured after 60 mins by alphascreen assay relative to control
[8] = Drug level in Jcl-ICR mouse brain at 100 mg/kg, ip measured at 2 hr by LC/MS/MS analysis; format: ADME, organism-based; conditions: read-out: Drug uptake
[9] = molecular target: Serine/threonine-protein kinase Chk1 (Homo sapiens) (UniProt O14757); assay: Inhibition of CHEK1 (unknown origin) at 100 nM by [gamma-33P]ATP-based radiometric or Alphascreen assay relative to control
[10] = molecular target: Mitogen-activated protein kinase 3 (Homo sapiens) (UniProt P27361); assay: Inhibition of N-terminal FLAG-tagged ERK1 (unknown origin) expressed in baculovirus expression system at 100 nM using myelin basic protein as substrate preincubated for 5 mins followed by [gamma-33P]ATP addition and measured after 60 mins by topcount scintillation counting method relative to control
[11] = molecular target: Hepatocyte growth factor receptor (Homo sapiens) (UniProt P08581); assay: Inhibition of recombinant human N-terminal GST-fused/His6-tagged c-MET (956 to 1390 residues) expressed in baculovirus infected Spodoptera frugiperda cells at 100 nM preincubated for 5 mins followed by ATP addition and measured after 10 mins by alphascreen assay relative to control
[12] = molecular target: Insulin receptor (Homo sapiens) (UniProt P06213); assay: Inhibition of IRK (unknown origin) at 100 nM by [gamma-33P]ATP-based radiometric or Alphascreen assay relative to control
[13] = Drug level in Jcl-ICR mouse plasma at 100 mg/kg, ip measured at 2 hr by LC/MS/MS analysis; format: ADME, organism-based
[14] = molecular target: High affinity nerve growth factor receptor (Homo sapiens, UniProt P04629); assay: Inhibition of TRKA (unknown origin) at 100 nM by [gamma-33P]ATP-based radiometric or Alphascreen assay relative to control
[15] = Drug level in Jcl-ICR mouse brain at 100 mg/kg, ip measured at 0.5 hrs by LC/MS/MS analysis; format: ADME, organism-based; conditions: read-out: Drug uptake
[16] = molecular target: Phosphatidylinositol 4,5-bisphosphate 3-kinase catalytic subunit alpha isoform (Homo sapiens) (UniProt P42336); assay: Inhibition of PI3Kalpha (unknown origin) at 100 nM by [gamma-33P]ATP-based radiometric or Alphascreen assay relative to control
[17] = Unbound brain-to-plasma concentration ratio in Jcl-ICR mouse at 100 mg/kg, ip measured at 2 hrs by LC/MS/MS analysis; format: ADME, organism-based; conditions: read-out: K(p,uu,brain)
[18] = molecular target: Epidermal growth factor receptor (Homo sapiens) (UniProt P00533); assay: Inhibition of human N-terminal DYKDDDD-tagged EGFR cytoplasmic domain (669 to 1210 residues) expressed in baculovirus expression system at 100 nM using poly-Glu-Tyr(4:1) as substrate preincubated for 5 mins followed by [gamma-33P]ATP addition and measured after 10 mins by topcount scintillation counting method relative to control
[19] = molecular target: Vascular endothelial growth factor receptor 2 (Homo sapiens) (UniProt P35968); assay: Inhibition of N-terminal FLAG-tagged VEGFR2 (unknown origin) expressed in baculovirus expression system at 100 nM preincubated for 5 mins followed by ATP addition and measured after 10 mins by alphascreen assay relative to control
Chain of Vascular endothelial growth factor receptor 2 (Homo sapiens) (P35968 whole entry): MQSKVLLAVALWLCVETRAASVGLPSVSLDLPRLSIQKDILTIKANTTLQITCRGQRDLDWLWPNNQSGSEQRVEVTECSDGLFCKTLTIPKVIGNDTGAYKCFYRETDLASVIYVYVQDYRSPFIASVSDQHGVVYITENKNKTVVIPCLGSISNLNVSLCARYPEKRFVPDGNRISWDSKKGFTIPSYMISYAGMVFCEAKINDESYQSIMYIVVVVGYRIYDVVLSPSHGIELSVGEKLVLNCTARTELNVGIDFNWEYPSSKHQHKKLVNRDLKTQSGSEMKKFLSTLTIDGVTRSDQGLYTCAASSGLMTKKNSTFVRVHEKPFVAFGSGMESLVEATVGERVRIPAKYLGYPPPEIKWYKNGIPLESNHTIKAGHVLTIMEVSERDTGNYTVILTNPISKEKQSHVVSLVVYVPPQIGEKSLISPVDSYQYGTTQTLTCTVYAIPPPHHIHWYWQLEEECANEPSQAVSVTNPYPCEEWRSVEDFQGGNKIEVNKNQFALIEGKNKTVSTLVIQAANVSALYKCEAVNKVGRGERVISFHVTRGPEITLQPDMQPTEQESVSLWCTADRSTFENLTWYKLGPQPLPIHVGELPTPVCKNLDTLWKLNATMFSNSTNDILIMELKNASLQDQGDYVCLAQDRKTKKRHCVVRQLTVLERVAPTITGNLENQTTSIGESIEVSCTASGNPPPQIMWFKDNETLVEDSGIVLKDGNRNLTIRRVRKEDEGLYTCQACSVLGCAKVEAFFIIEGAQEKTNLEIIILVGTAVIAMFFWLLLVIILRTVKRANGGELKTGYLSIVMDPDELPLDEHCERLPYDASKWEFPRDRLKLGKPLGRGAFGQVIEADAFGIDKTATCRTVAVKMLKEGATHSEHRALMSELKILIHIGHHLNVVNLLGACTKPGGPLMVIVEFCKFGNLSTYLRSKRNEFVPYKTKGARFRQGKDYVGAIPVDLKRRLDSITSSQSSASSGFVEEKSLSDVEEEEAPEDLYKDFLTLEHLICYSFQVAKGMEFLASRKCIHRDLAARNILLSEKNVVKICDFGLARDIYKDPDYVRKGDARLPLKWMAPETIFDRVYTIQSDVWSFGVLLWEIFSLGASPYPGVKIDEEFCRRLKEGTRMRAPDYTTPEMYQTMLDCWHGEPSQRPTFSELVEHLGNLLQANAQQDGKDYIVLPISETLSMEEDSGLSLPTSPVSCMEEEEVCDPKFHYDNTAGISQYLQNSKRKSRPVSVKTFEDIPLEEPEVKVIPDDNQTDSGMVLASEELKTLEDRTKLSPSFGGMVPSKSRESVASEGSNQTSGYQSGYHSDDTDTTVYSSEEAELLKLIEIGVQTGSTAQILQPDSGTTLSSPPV

Chain of Focal adhesion kinase 1 (Q05397 2-1052 limits assumed): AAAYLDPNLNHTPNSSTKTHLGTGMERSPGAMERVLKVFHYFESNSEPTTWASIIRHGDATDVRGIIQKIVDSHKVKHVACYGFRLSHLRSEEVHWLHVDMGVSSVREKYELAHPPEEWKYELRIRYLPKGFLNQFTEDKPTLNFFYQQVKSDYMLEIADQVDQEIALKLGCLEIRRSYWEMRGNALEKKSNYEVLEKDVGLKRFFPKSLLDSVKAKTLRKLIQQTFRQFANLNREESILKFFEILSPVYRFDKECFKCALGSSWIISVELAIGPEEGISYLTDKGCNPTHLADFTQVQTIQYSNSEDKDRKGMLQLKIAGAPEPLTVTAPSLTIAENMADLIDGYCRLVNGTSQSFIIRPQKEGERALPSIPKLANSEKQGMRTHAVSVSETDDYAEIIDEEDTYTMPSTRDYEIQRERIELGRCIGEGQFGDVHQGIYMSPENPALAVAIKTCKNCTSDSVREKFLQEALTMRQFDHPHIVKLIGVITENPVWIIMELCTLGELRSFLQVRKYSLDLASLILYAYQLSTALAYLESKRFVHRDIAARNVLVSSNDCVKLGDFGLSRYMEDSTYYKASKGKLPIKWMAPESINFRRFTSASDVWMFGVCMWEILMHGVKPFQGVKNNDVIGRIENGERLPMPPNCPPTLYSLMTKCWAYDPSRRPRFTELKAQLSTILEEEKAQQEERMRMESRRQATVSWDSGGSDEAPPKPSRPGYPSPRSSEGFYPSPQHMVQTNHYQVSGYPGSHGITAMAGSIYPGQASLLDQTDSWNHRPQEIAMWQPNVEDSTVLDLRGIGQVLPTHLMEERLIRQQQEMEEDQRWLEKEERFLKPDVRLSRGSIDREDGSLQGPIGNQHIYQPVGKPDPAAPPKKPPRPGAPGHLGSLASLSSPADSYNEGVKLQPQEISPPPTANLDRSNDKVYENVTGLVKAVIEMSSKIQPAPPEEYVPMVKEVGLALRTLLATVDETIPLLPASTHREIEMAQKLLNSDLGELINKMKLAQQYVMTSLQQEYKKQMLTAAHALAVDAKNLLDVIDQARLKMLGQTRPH
Chain of High affinity nerve growth factor receptor (P04629 33-796 limits assumed): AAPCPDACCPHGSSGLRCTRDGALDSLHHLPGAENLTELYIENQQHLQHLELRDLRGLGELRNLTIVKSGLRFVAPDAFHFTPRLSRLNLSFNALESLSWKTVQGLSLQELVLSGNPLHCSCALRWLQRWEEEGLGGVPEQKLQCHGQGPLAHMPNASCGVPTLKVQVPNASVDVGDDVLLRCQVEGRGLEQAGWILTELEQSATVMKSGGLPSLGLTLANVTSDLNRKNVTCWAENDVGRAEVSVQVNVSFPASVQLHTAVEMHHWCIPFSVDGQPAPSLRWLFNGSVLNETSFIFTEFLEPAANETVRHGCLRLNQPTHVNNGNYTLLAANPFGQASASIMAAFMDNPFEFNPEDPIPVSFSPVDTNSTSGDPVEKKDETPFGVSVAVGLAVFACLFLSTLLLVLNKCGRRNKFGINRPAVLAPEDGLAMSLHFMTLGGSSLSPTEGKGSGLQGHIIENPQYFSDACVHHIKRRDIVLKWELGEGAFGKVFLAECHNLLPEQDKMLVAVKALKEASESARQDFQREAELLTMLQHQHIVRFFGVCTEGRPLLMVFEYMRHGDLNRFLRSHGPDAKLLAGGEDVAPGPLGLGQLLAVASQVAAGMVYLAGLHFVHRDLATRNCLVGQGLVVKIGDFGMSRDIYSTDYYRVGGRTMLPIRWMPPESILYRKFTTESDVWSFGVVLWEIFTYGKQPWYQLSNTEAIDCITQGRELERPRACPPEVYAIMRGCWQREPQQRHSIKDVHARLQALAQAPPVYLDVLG
Chain of ALK tyrosine kinase receptor (Q9UM73 whole entry): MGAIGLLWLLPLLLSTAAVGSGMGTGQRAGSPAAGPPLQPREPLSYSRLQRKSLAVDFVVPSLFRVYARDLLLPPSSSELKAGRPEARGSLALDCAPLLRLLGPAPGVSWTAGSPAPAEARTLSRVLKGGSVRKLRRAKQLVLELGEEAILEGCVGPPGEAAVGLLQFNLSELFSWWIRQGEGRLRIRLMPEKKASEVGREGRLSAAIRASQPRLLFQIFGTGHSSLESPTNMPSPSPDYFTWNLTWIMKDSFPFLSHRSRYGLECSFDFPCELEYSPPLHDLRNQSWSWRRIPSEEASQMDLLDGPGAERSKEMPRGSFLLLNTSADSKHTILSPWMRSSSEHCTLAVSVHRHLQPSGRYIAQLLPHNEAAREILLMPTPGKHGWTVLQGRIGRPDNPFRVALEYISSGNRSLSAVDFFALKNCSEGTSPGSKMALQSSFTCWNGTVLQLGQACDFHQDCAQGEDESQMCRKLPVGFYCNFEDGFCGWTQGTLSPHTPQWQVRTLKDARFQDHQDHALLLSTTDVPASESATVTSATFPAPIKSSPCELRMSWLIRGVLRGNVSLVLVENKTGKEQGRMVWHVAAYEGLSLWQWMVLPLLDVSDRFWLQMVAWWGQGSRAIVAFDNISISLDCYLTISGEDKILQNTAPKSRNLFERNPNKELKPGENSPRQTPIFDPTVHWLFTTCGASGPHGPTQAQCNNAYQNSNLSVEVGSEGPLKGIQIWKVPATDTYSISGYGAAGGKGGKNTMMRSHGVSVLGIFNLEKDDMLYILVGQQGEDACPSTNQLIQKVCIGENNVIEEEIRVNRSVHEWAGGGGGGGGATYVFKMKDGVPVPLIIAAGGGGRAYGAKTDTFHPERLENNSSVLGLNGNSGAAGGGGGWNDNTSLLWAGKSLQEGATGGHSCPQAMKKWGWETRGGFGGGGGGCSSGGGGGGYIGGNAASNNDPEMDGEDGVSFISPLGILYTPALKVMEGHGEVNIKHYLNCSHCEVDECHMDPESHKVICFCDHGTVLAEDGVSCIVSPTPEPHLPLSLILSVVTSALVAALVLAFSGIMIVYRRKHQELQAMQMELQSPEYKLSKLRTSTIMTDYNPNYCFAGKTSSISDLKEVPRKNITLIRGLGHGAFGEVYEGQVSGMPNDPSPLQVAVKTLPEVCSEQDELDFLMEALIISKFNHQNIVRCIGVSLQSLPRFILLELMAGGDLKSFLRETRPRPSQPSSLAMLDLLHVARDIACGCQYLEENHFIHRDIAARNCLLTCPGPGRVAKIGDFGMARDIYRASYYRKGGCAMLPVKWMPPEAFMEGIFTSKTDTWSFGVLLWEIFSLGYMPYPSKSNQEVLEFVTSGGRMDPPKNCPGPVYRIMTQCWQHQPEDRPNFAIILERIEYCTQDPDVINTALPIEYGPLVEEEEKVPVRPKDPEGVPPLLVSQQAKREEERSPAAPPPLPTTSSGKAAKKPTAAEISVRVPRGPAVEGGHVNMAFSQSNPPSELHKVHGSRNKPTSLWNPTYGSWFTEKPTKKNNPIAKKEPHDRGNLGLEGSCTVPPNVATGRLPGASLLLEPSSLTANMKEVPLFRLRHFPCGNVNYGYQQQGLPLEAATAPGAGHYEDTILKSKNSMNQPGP

`Cc1cc(-n2cc(C(=O)N3CCO[C@@H](C)C3)c3ccc(O[C@@H](C)c4ccc(F)cn4)nc32)n[nH]1` gave an inhibition [1] of -1%, an inhibition [2] of 5% and a pIC50 [3] of 8.54. For the same molecule, the inhibition [4] was 12%, the inhibition [5] was 6% and the Fu [6] was 0.017%. The inhibition [7] was 83%, the concentration at 2 h [8] was 10300 ng/mL and the inhibition [9] was -9%. The inhibition [10] was 3%, the inhibition [11] was -5% and the inhibition [12] was 2%. For the same molecule, the concentration at 2 h [13] was 11600 ng/mL, the inhibition [14] was 9% and the concentration at 0.5 h [15] was 33000 ng/mL. It also gave an inhibition [16] of -2%, a Kp uu at 2 h [17] of 0.11 and an inhibition [18] of -1%. It also gave an inhibition [19] of 2%.
